According to paper PMC11149917, “Translational and Therapeutic Evaluation of RAS-GTP Inhibition by RMC-6236 in RAS-Driven Cancers” (Cancer Discovery, 2024):
Read-outs that look alike come from different tables or passages of the source.

Assay: Mouse blood and tissue PK (LC/MS-MS)
Assay type: in vivo
Conditions: mouse; for concentration at 2 h / concentration at 24 h / concentration at 4 h / concentration at 8 h / concentration at 48 h / Kp: oral; for concentration at 2 h / concentration at 24 h / concentration at 4 h / concentration at 8 h / concentration at 48 h: read-out: RMC-6236 (nM) Tumor; for Kp: tumor relative to whole blood, read-out: Tumor/Blood AUC Ratio; for AUC(0-t): read-out: Blood AUClast
Protocol: For single-dose PKPD study, mice were randomized and assigned into groups (n = 3/dose/time point). […] Blood and tissues, including the tumor, brain, colon, ear skin, and muscle, were harvested at indicated time points. […] The whole blood, tumor, brain, colon, and ear skin concentrations of RMC-6236 were determined using liquid chromatography–tandem mass spectrometry (LC/MS-MS) methods. […] After thorough mixing and centrifugation, the supernatant was diluted with water or directly analyzed on a Sciex 5500 or Sciex 6500+ triple quadrupole mass spectrometer equipped with an ACQUITY or Shimadzu UPLC system. […] Bioanalysis on blood and tissue samples from xenograft models was run at Pharmaron and Wuxi AppTec. Concentrations reported as below the quantification limit were treated as zero for PK analysis. PK parameters were calculated by noncompartmental analysis of the concentration–time profiles using Phoenix WinNonLin (version 8.3 Certara). Apparent terminal elimination half-life (t1/2) values were calculated as ln(2)/k, where k represents the terminal elimination rate constant. Area under the concentration–time curve (AUC) values were estimated using a linear trapezoidal method. AUClast values were calculated from the dosing time to the last quantifiable concentration. Maximum concentration (Cmax) was recorded as observed.

[1] = BALB/c nude, ear skin, 3 mg/kg, sheet Ear Skin, model Capan-2, study Capan-2 #3_PHA 2023, 3 mg/kg
[2] = BALB/c nude, ear skin, 10 mg/kg, sheet Ear Skin, model Capan-2, study Capan-2 #3_PHA 2023, 10 mg/kg
[3] = BALB/c nude, ear skin, 25 mg/kg, sheet Ear Skin, model Capan-2, study Capan-2 #3_PHA 2023, 25 mg/kg
[4] = BALB/c nude, ear skin, 50 mg/kg, sheet Ear Skin, model Capan-2, study Capan-2 #3_PHA 2023, 50 mg/kg
[5] = BALB/c nude, ear skin, 100 mg/kg, sheet Ear Skin, model Capan-2, study Capan-2 #3_PHA 2023, 100 mg/kg
[6] = BALB/c nude, tumor, 0.3 mg/kg, Capan-2, study Capan-2 #3_PHA 2020, 0.3 mg/kg
[7] = BALB/c nude, tumor, 3 mg/kg, Capan-2, study Capan-2 #3_PHA 2020, 3 mg/kg
[8] = BALB/c nude, tumor, 3 mg/kg, Capan-2, study Capan-2 #3_PHA 2023, 3 mg/kg
[9] = BALB/c nude, tumor, 10 mg/kg, Capan-2, study Capan-2 #3_PHA 2020, 10 mg/kg
[10] = BALB/c nude, tumor, 10 mg/kg, Capan-2, study Capan-2 #3_PHA 2023, 10 mg/kg
[11] = BALB/c nude, tumor, 10 mg/kg, sheet colon, Capan-2, Capan-2 #3_PHA 2023, 10 mg/kg
[12] = BALB/c nude, tumor, 25 mg/kg, Capan-2, study Capan-2 #3_PHA 2020, 25 mg/kg
[13] = BALB/c nude, tumor, 25 mg/kg, Capan-2, study Capan-2 #3_PHA 2023, 25 mg/kg
[14] = BALB/c nude, tumor, 25 mg/kg, sheet colon, Capan-2, Capan-2 #3_PHA 2023, 25 mg/kg
[15] = BALB/c nude, tumor, 40 mg/kg, Capan-2, study Capan-2 #3_PHA 2020, 40 mg/kg
[16] = BALB/c nude, tumor, 50 mg/kg, Capan-2, study Capan-2 #3_PHA 2023, 50 mg/kg
[17] = BALB/c nude, tumor, 50 mg/kg, sheet colon, Capan-2, Capan-2 #3_PHA 2023, 50 mg/kg
[18] = BALB/c nude, tumor, 100 mg/kg, Capan-2, study Capan-2 #3_PHA 2023, 100 mg/kg
[19] = BALB/c nude, tumor, 100 mg/kg, sheet colon, Capan-2, Capan-2 #3_PHA 2023, 100 mg/kg
[20] = BALB/c nude, whole blood, po, 3 mg/kg, Capan-2 (3 mg/kg), single dose
[21] = BALB/c nude, whole blood, po, 10 mg/kg, Capan-2 (10 mg/kg), single dose
[22] = BALB/c nude, whole blood, po, 25 mg/kg, Capan-2 (25 mg/kg), single dose
[23] = Balb/c nude, whole blood, po, 25 mg/kg, LU99-luc IC #2 (25 mg/kg), single dose

Work on CCn1c(-c2cc(N3CCN(C)CC3)cnc2[C@H](C)OC)c2c3cc(ccc31)-c1csc(n1)C[C@H](NC(=O)[C@H]1C[C@@H]1C)C(=O)N1CCC[C@H](N1)C(=O)OCC(C)(C)C2 [RMC-6236] yielded a concentration at 2 h (BALB/c nude, colon, 3 mg/kg, sheet colon, Capan-2, Capan-2 #3_PHA 2023, 3 mg/kg) of 1370 nM, a concentration at 2 h (BALB/c nude, colon, 25 mg/kg, sheet colon, Capan-2, Capan-2 #3_PHA 2023, 25 mg/kg) of 5810 nM and a concentration at 24 h (BALB/c nude, colon, 50 mg/kg, sheet colon, Capan-2, Capan-2 #3_PHA 2023, 50 mg/kg) of 147 nM. The concentration at 24 h (BALB/c nude, colon, 100 mg/kg, sheet colon, Capan-2, Capan-2 #3_PHA 2023, 100 mg/kg) was 531 nM, the concentration at 2 h [1] was 175 nM and the concentration at 4 h [1] was 255 nM. It also gave a concentration at 8 h [1] of 195 nM, a concentration at 24 h [1] of 48.3 nM and a concentration at 2 h [2] of 469 nM. It also gave a concentration at 4 h [2] of 883 nM, a concentration at 8 h [2] of 1080 nM and a concentration at 24 h [2] of 219 nM. For the same compound, the concentration at 48 h [2] was 41.6 nM, the concentration at 2 h [3] was 1640 nM and the concentration at 4 h [3] was 2370 nM. For the same compound, the concentration at 8 h [3] was 1360 nM, the concentration at 24 h [3] was 512 nM and the concentration at 48 h [3] was 147 nM. It also gave a concentration at 2 h [4] of 5540 nM, a concentration at 4 h [4] of 7670 nM and a concentration at 8 h [4] of 4410 nM. The concentration at 24 h [4] was 1110 nM, the concentration at 48 h [4] was 276 nM and the concentration at 2 h [5] was 12300 nM. For the same compound, the concentration at 8 h [5] was 6560 nM, the concentration at 24 h [5] was 2500 nM and the Kp (BALB/c nude, 3 mg/kg, Capan-2 (3 mg/kg), single dose) was 3.3. It also gave a Kp (BALB/c nude, 10 mg/kg, Capan-2 (10 mg/kg), single dose) of 4.6, a Kp (BALB/c nude, 25 mg/kg, Capan-2 (25 mg/kg), single dose) of 5.8 and a concentration at 2 h [6] of 15.2 nM. It also gave a concentration at 8 h [6] of 14.8 nM, a concentration at 24 h [6] of 5.5 nM and a concentration at 2 h [7] of 314 nM. It also gave a concentration at 8 h [7] of 136 nM, a concentration at 24 h [7] of 67 nM and a concentration at 48 h [7] of 22 nM. The concentration at 2 h [8] was 148 nM, the concentration at 4 h [8] was 290 nM and the concentration at 8 h [8] was 231 nM. The concentration at 24 h [8] was 109 nM, the concentration at 48 h [8] was 48.6 nM and the concentration at 8 h (BALB/c nude, tumor, 3 mg/kg, sheet colon, Capan-2, Capan-2 #3_PHA 2023, 3 mg/kg) was 567 nM. It also gave a concentration at 2 h [9] of 671 nM, a concentration at 8 h [9] of 829 nM and a concentration at 24 h [9] of 406 nM. For the same compound, the concentration at 48 h [9] was 101 nM, the concentration at 2 h [10] was 630 nM and the concentration at 4 h [10] was 1230 nM. The concentration at 8 h [10] was 1120 nM, the concentration at 24 h [10] was 563 nM and the concentration at 48 h [10] was 142 nM. The concentration at 4 h [11] was 3110 nM, the concentration at 8 h [11] was 1860 nM and the concentration at 24 h [11] was 40.6 nM. It also gave a concentration at 2 h [12] of 2200 nM, a concentration at 8 h [12] of 2400 nM and a concentration at 24 h [12] of 1250 nM. It also gave a concentration at 2 h [13] of 2210 nM, a concentration at 4 h [13] of 3050 nM and a concentration at 8 h [13] of 2290 nM. It also gave a concentration at 24 h [13] of 1130 nM, a concentration at 4 h [14] of 6440 nM and a concentration at 8 h [14] of 3260 nM. For the same compound, the concentration at 2 h [15] was 3660 nM, the concentration at 8 h [15] was 3360 nM and the concentration at 24 h [15] was 1740 nM. The concentration at 2 h [16] was 4650 nM, the concentration at 4 h [16] was 5600 nM and the concentration at 8 h [16] was 5310 nM. For the same compound, the concentration at 24 h [16] was 2520 nM, the concentration at 2 h [17] was 21800 nM and the concentration at 4 h [17] was 10600 nM. It also gave a concentration at 2 h [18] of 10400 nM, a concentration at 4 h [18] of 17300 nM and a concentration at 8 h [18] of 7500 nM. It also gave a concentration at 24 h [18] of 4270 nM, a concentration at 48 h [18] of 1150 nM and a concentration at 2 h [19] of 25300 nM. For the same compound, the concentration at 4 h [19] was 30100 nM, the half-life (BALB/c nude, tumor, po, 3 mg/kg, Capan-2 (3 mg/kg), single dose, read-out: Tumor t1/2 (converted)) was 16.6 h and the half-life (BALB/c nude, tumor, po, 10 mg/kg, Capan-2 (10 mg/kg), single dose, read-out: Tumor t1/2 (converted)) was 15.7 h. For the same compound, the half-life (BALB/c nude, tumor, po, 25 mg/kg, Capan-2 (25 mg/kg), single dose, read-out: Tumor t1/2 (converted)) was 14 h, the Cmax [20] was 252 ng/mL and the AUC(0-t) [20] was 1560 ng·h/mL. The Cmax [21] was 950 ng/mL, the AUC(0-t) [21] was 5090 ng·h/mL and the half-life (BALB/c nude, whole blood, po, 10 mg/kg, Capan-2 (10 mg/kg), single dose, read-out: Blood t1/2 (converted)) was 3.77 h. For the same compound, the Cmax [22] was 2920 ng/mL, the AUC(0-t) [22] was 11600 ng·h/mL and the half-life (BALB/c nude, whole blood, po, 25 mg/kg, Capan-2 (25 mg/kg), single dose, read-out: Blood t1/2 (converted)) was 2.77 h. The half-life (Balb/c nude, tumor (intracranial), po, 25 mg/kg, LU99-luc IC (25 mg/kg), intracranial tumor, read-out: Tumor t1/2 (converted)) was 16.1 h, the half-life (Balb/c nude, tumor (subcutaneous xenograft), sc, 25 mg/kg, LU99-luc SC (25 mg/kg), subcutaneous xenograft tumor, read-out: Tumor t1/2 (converted)) was 25.3 h and the Cmax [23] was 2020 ng/mL. The AUC(0-t) [23] was 14000 ng·h/mL and the Cmax (Balb/c nude, whole blood, po, 25 mg/kg, LU99-luc IC (25 mg/kg), single dose) was 2500 ng/mL.
